Experimental data published in PubChem BioAssay (NCI).
“And” between values parts separate entries of the source, which are not always exact repeats. Equal entries are not always repeated.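 A five-concentration, 48-hour dose response in 96-well plates underlies each endpoint, interpolated linearly between surrounding concentrations. GI50 marks 50% less growth. Definition used: TGI = concentration required for complete inhibition of growth.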

Assays:
Experiment in all cases: NCI tumour cell line growth inhibition, 48 h
M14 melanoma = tested on: M14 melanoma
HCT-116 colon = tested on: HCT-116 colon
SK-MEL-2 melanoma = tested on: SK-MEL-2 melanoma
EKVX NSCLC = tested on: EKVX NSCLC
SNB-19 CNS = tested on: SNB-19 CNS
IGROV1 ovarian = tested on: IGROV1 ovarian
HCT-15 colon = tested on: HCT-15 colon
OVCAR-3 ovarian = tested on: OVCAR-3 ovarian
SNB-75 CNS = tested on: SNB-75 CNS
HL-60(TB) leukemia = tested on: HL-60(TB) leukemia

| SMILES | TGI (M14 melanoma) [nM] | TGI (HCT-116 colon) [nM] | TGI (SK-MEL-2 melanoma) | TGI (EKVX NSCLC) [nM] | TGI (SNB-19 CNS) [nM] | TGI (IGROV1 ovarian) [nM] | TGI (HCT-15 colon) [nM] | TGI (OVCAR-3 ovarian) | TGI (SNB-75 CNS) | TGI (HL-60(TB) leukemia) | GI50 (M14 melanoma) | GI50 (HCT-116 colon) | GI50 (SK-MEL-2 melanoma) | GI50 (EKVX NSCLC) [nM] | GI50 (SNB-19 CNS) | GI50 (IGROV1 ovarian) [nM] | GI50 (HCT-15 colon) | GI50 (OVCAR-3 ovarian) | GI50 (SNB-75 CNS) | GI50 (HL-60(TB) leukemia) |
| --- | --- | --- | --- | --- | --- | --- | --- | --- | --- | --- | --- | --- | --- | --- | --- | --- | --- | --- | --- | --- |
| NC1=NN(c2ccccc2)C(=O)C1C(=O)C(=O)Nc1nccs1 (centres undefined) | > 100000 | > 100000 | > 100000 nM | > 100000 | > 100000 | > 100000 | > 100000 | > 100000 nM | > 100000 nM | > 100000 nM |  |  |  |  |  |  |  |  |  |  |
| C=C(CO)[C@@H]1CC[C@]2(COC3CCCCO3)CC[C@]3(C)[C@H](CC[C@@H]4[C@@]5(C)C=C(C=O)C(=O)C(C)(C)[C@@H]5CC[C@]43C)[C@@H]12 (some centres undefined) | 672 | 1080 | 1820 nM | 856 | 1440 | 515 | 718 | 428 nM | 625 nM | 994 nM | 247 nM | 303 nM | 448 nM | 259 | 414 nM | 231 | 247 nM | 207 nM | 206 nM | 250 nM |
| Cc1ccc(C(=O)/C=C/c2cccc([N+](=O)[O-])c2)cc1 | > 100000 | 31800 | > 100000 nM | > 100000 | > 100000 | > 100000 | > 64000 | > 100000 nM | > 92900 nM | > 85800 nM |  |  |  |  |  |  |  |  |  |  |
| Clc1ccccc1CNc1c2ccccc2nc2ccccc12 | 9980 | 8100 | 12500 nM | 9850 | 8960 | 8830 | 6850 | 10500 nM | 9630 nM | 9710 nM | 2040 nM | 1650 nM | 3260 nM | 2770 | 2280 nM | 1880 | 1690 nM | 3390 nM | 2550 nM | 2050 nM |
| CC(CN(C)C)Oc1ccccc1NC1=C(Cl)C(=O)C(Nc2ccccc2OC(C)CN(C)C)=C(Cl)C1=O (centres undefined) | 2830 | 344 | 2890 nM | 1810 | 3280 | 1880 | 375 | 310 nM | 3010 nM | 902 nM | 1380 nM | 170 nM | 1340 nM | 685 | 1710 nM | 580 | 176 nM | 167 nM | 1440 nM | 272 nM |
| COc1cc(-c2csc(NC(=O)Nc3ccc(C(F)(F)F)cc3)n2)cc(OC)c1OC | 5100 | 8160 | 5810 nM | 10200 | 12300 | 13500 | 4090 | 5220 nM | 5520 nM | 8050 nM | 2000 nM | 2320 nM | 2430 nM | 2150 | 2690 nM | 2860 | 1710 nM | 2000 nM | 1430 nM | 3750 nM |
| C/C(=C\c1cc(C(F)(F)F)n(-c2ccc(N)cc2)n1)[C@@H]1C[C@@H]2O[C@]2(C)CCC[C@H](C)[C@H](O)[C@@H](C)C(=O)C(C)(C)[C@@H](O)CC(=O)O1 | 96 | > 5490 | 382 nM | > 11100 | > 11100 | > 11100 | > 11100 | 1750 nM | 189 nM | 2680 nM | 16.6 nM | 7.75 nM | 29.5 nM | 230 | 71.1 nM | 68 | 25.6 nM | 18.2 nM | 7.8 nM | 16.8 nM |
| C=C1C(=O)O[C@H]2[C@H]1CC/C(COC(=O)C(C)c1ccc(CC(C)C)cc1)=C\CC[C@@]1(C)O[C@@H]21 (some centres undefined) | 2130 | 376 | 3720 nM | 3350 | 2870 | 2330 | 2370 | 2870 nM | 3160 nM | 2680 nM | 688 nM | 187 nM | 1890 nM | 1750 | 1490 nM | 1070 | 871 nM | 1500 nM | 1680 nM | 647 nM |
| Oc1ccc(C2c3ccccc3Oc3ccccc32)c2cccnc12 | 4210 | > 100000 | 69500 nM | > 100000 | > 100000 | > 100000 | > 100000 | > 100000 nM | > 100000 nM | > 100000 nM | 1340 nM | 852 nM | 2310 nM | 2000 | 1850 nM | 1620 | 468 nM | 2450 nM | 6960 nM | 1940 nM |
| Cc1cccc2c1CCC21OC(=O)c2c1ccc1ccccc21 (centres undefined) | 64800 | > 100000 | 62300 nM | > 100000 | > 100000 | > 100000 | > 100000 | > 100000 nM | > 100000 nM | 66000 nM |  |  |  |  |  |  |  |  |  |  |
| Cc1ccc(NS(=O)(=O)c2cccc(C#N)c2)c2[nH]cc(C#N)c12 | > 100000 | > 100000 | 59700 nM and 52400 nM | 80900 | > 100000 | > 100000 | > 100000 | 60200 nM and > 94700 nM | 52300 nM and 29400 nM | 65400 nM and > 82200 nM | 20000 nM and 16300 nM | 146 nM and 157 nM | 22500 nM and 15100 nM | 26600 | 16100 nM and 24600 nM |  | 6140 nM and 14100 nM | 22000 nM and 27300 nM | 6510 nM and 7050 nM | 20100 nM and 26800 nM |
| O=C1/C(=C/c2ccc(Cl)cc2)CCC/C1=C\c1ccc(Cl)cc1 | 8700 | 3020 | > 100000 nM | > 100000 | > 100000 | > 100000 | > 100000 | 7770 nM | > 100000 nM | > 100000 nM | 3040 nM | 1650 nM | > 100000 nM | > 100000 | 6690 nM | 4130 | 3390 nM | 3030 nM | > 100000 nM | 3560 nM |
